Results from US12636366B2, “Ruthenium (II) complexes and conjugates thereof for use as photosensitizer agent in photodynamic therapy” (Paris Sciences et Lettres, priority 2019, dated 2026).
Like-named read-outs stand apart in the source and are kept apart here.

Tests used:
[1] = system: human cervical carcinoma cells (HeLa); assay: Dark and light cytotoxicity, resazurin cell viability assay, HeLa; assay type: cell-based; conditions: for PI (IC50 in the dark/IC50 upon light irradiation): 480 nm
Experimental: (§1) HeLa and CT-26 cell lines were cultured in DMEM media (Gibco, Life Technologies, USA) supplemented with 10% of fetal calf serum (Gibco). U87 and U373 cell lines were cultured in MEM media with addition of 1% of MEM NEAA (non-essential aminoacids) (Gibco) and 10% of fetal calf serum. RPE-1 cells were cultured in DMEM/F-12 (Gibco) supplemented with 10% of fetal calf serum. RPE-1 stable cells lines were cultured as RPE-1 cells with addition of geneticin (0.5 mg/ml) (Gibco). All cell lines were complemented with 100 U/ml penicillin-streptomycin mixture (Gibco), and maintained in humidified atmosphere at 37° C. and 5% of CO2.
(§2) Dark and light cytotoxicity of the Ru(II) complexes was assessed by fluorometric cell viability assay using resazurin (ACROS Organics). For dark and light cytotoxicity, cells were seeded in triplicates in 96 well plates at a density of 4000 cells per well in 100 μl, 24 h prior to treatment. The medium was then replaced with increasing concentration of the tested complexes and cells were incubated for 4 h. Medium was then replaced for fresh complete medium. Cells used for light cytotoxicity experiment were exposed to: 480 nm light for 10 min, 510 nm for 40 min, 540 for 60 min or 595 nm for 120 min in a 96-well plate using a LUMOS-BIO photoreactor (Atlas Photonics). Each well was individually illuminated with a LED at constant current. After irradiation cells were kept for another 44 h in the incubator and the medium was replaced by fresh complete medium containing resazurin (0.2 mg ml^−1 final concentration). After 4 h incubation at 37° C., the fluorescence signal of the resorufin product was read by SpectraMax M5 microplate reader (ex: 540 nm em: 590 nm). IC50 values were calculated using GraphPad Prism software.
(§3) The potential of the complexes to act as PDT PSs was determined on mouse colon carcinoma cells (CT-26), human glioblastoma cells (U87 and U373), human cervical carcinoma cells (HeLa) as well as non-cancerous retina pigmented epithelial cell line (RPE-1) according to the method described above. […] Ideally, a PDT PS should be non-toxic in the dark and highly toxic upon light activation. […] The toxicity of the compounds upon light irradiation (480 nm, 10 min, 3.21 J cm^−2) was then investigated.

[2] = system: non-cancerous retina pigmented epithelial cell line (RPE-1); assay: Dark and light cytotoxicity, resazurin cell viability assay, RPE-1; assay type: cell-based; conditions: for PI (IC50 in the dark/IC50 upon light irradiation): RPE-1, 480 nm
Experimental: as §1, §2, §3

[3] = Singlet oxygen measurement, indirect evaluation (RNO reporter absorbance); assay type: physicochemical; conditions: indirect method, excitation at 450 nm, average of three, +-10%
Experimental: For the measurement in CH3CN: The samples were prepared in an air-saturated CH3CN solution containing the complex with an absorbance of 0.1 at the irradiation wavelength, N,N-dimethyl-4-nitrosoaniline aniline (RNO, 24 μM) and imidazole (12 mM). For the measurement in PBS buffer: The samples were prepared in an air-saturated PBS solution containing the complex with an absorbance of 0.1 at the irradiation wavelength, N,N-dimethyl-4-nitrosoaniline aniline (RNO, 20 μM) and histidine (10 mM). The samples were irradiated on 96 well plates with an Atlas Photonics LUMOS BIO irradiator for different times. The absorbance of the samples was measured during these time intervals with a SpectraMax M2 Microplate Reader (Molecular Devices). The difference in absorbance (A0-A) at 420 nm for the CH3CN solution or at 440 nm a PBS buffer solution was calculated and plotted against the irradiation times. From the plot the slope of the linear regression was calculated as well as the absorbance correction factor determined. The singlet oxygen quantum yields were calculated using the same formulas as used for the direct evaluation.
Additionally, the DFT calculations were able to characterize the lowest energy absorption band as a MLCT transition with a triplet state. With this in hand, a quantitative evaluation of singlet oxygen (^1O2) was performed to assess the potential of the PSs in PDT, by two methods: 1) direct by measurement of the luminescence of ^1O2, 2) indirect by measurement of the variation in absorbance of a reporter molecule, as described above. In the first method, the efficiency of the production of ^1O2 was assessed by measuring its phosphorescence at 1270 nm. Worthy of note, the possibility of detection in this experiment is affected by its environment as well as the used setup. With the setup used in this study, we could only detect Φ(^1O2) larger than 0.20 based on a low peak-to-noise ratio. In the second method (indirect method), ^1O2 is reacting with imidazole (in CH3CN) and histidine (in PBS buffer) to a trans-annular peroxide adduct. This can further quench the absorbance of the reporter molecule p-nitrosodimethyl aniline (RNO), which has been monitored by UV/VIS spectroscopy. In both methods, the ^1O2 production has been compared with a reference molecule, namely a solution of phenalenone in CH3CN (Φ(^1O2)phenaleone=0.95)^33 and a solution of [Ru(bipy)3]Cl2 in water Φ(^1O2)Ru(bipy)3Cl2=0.22)^31. […] In comparison, the values changed drastically in an aqueous solution. […] They have untypically low Φ(^1O2) values in CH3CN (0.22-0.35) for Ru(II) polypyridyl complexes. Subsequently, the ^1O2 production was also quite low in an aqueous environment.

[4] = In vivo biodistribution in healthy BALB/c mice (ruthenium by ICP-MS); set-up: species or system mouse
Experimental: Twenty four, 8 week old healthy BALB/c female mice were used in this study. 0.015 mg/ml solution of complex 6 was prepared in Milli-Q water and filtrated (0.2 μm cellulose acetate membrane, VWR). For the introduction of solution of complex 6, IV injection was used (300 μl per mouse). Organ samples, including brain, liver, spleen, kidneys and lung, were collected from treated mice after 2 h, 6 h and 24 h post-injection. Each time six mice were sacrificed. Remaining six animals were used as a control.
For these experiments, we have decided to use the chloride salt of the complex 6 to improve its solubility. The time-dependent biodistribution of this compound in different organs was determined in healthy 8-week-old BALB/c mice according to the above-described method. The amount of ruthenium in the tested samples was assessed using Inductive Coupled Plasma Mass-Spectrometry (ICP-MS). […] After 24 h, the amount of ruthenium in the liver decreased. This is a very promising result that could indicate that complex 6 is metabolized by the liver in living organisms.

[5] = light 480 nm, 10 min, 3.21 J cm^−2, read-out: IC50 Light
[6] = RPE-1, dark, read-out: IC50 Dark
[7] = RPE-1, light 480 nm, 10 min, 3.21 J cm^−2, read-out: IC50 Light

`F[P-](F)(F)(F)(F)F.F[P-](F)(F)(F)(F)F.[Ru+2].c1ccc(-c2ccccn2)nc1.c1cnc2c(c1)ccc1cccnc12.c1cnc2c(c1)ccc1cccnc12` [Compound 1, (Bipyridine)bis(1,10-phenanthroline)ruthenium(II)hexafluorophosphate] showed an IC50 ([1]; dark, read-out: IC50 Dark) of over 100 µM, an IC50 [1, 5] of over 100 µM and an IC50 [2, 6] of over 100 µM. For the same compound, the IC50 [2, 7] was over 100 µM, the “Singlet oxygen quantum yield Φ(1O2), CH3CN Indirect” value [3] was 0.54 and the “Singlet oxygen quantum yield Φ(1O2), PBS indirect” value [3] was 0.46.

`Cc1ccnc(-c2cc(C)ccn2)c1.F[P-](F)(F)(F)(F)F.F[P-](F)(F)(F)(F)F.[Ru].c1cnc2c(c1)ccc1cccnc12.c1cnc2c(c1)ccc1cccnc12` [Compound 2, (4,4′-Dimethyl-2,2′-bipyridine)bis(1,10-phenanthroline)ruthenium(II)hexafluorophosphate] showed an IC50 ([1]; dark, read-out: IC50 Dark) of over 100 µM, an IC50 [1, 5] of over 100 µM and an IC50 [2, 6] of over 100 µM. The IC50 [2, 7] was over 100 µM, the “Singlet oxygen quantum yield Φ(1O2), CH3CN Indirect” value [3] was 0.53 and the “Singlet oxygen quantum yield Φ(1O2), PBS indirect” value [3] was 0.34.

In the case of “(2,2′-bipyridine-4,4′-carboxamide)bis(1,10-phenanthroline)ruthenium(II) hexafluorophosphate [Compound 4]”, the IC50 ([1]; dark, read-out: IC50 Dark) is reported as over 100 µM, the IC50 [1, 5] is reported as over 100 µM and the IC50 [2, 6] is reported as over 100 µM. The IC50 [2, 7] was over 100 µM, the “Singlet oxygen quantum yield Φ(1O2), CH3CN Indirect” value [3] was 0.59 and the “Singlet oxygen quantum yield Φ(1O2), PBS indirect” value [3] was 0.26.

With “(4,4′-Dibromo-2,2′-bipyridine)bis(1,10-phenanthroline)ruthenium(II) hexafluorophosphate [Compound 3]” the IC50 ([1]; dark, read-out: IC50 Dark) was over 100 µM, the IC50 [1, 5] was over 100 µM and the IC50 [2, 6] was over 100 µM. For the same compound, the IC50 [2, 7] was over 100 µM, the “Singlet oxygen quantum yield Φ(1O2), CH3CN Indirect” value [3] was 0.56 and the “Singlet oxygen quantum yield Φ(1O2), PBS indirect” value [3] was 0.16.

In the case of “(4,4′-Dimethyl-2,2′-bipyridine)bis(4,7-diphenyl-1,10-phenanthroline)ruthenium(II) hexafluorophosphate [Compound 6]”, the “Levels of Ru in harvested organs (brain, liver, spleen, kidneys, lung)” value ([4]; IV injection, 6 h post injection, chloride salt) is reported as “only liver had clearly increased levels of Ru”, the “Amount of ruthenium in the liver” value ([4]; IV injection, after 24 h, chloride salt) is reported as “decreased” and the “Behaviour of treated animals” value ([4]; IV injection, chloride salt) is reported as “behave normally, without signs of pain, stress or discomfort”. The “Blood analysis, immune response compared to untreated control” value ([4]; after 24 h treatment) was “no sign of immune response”, the “PI (IC50 in the dark/IC50 upon light irradiation)” value (“PI” for short) ([1]; 10 min) was 22.2 and the IC50 ([1]; dark, read-out: IC50 Dark) was 13.6 ± 1.3 µM. The IC50 [1, 5] was 0.61 ± 0.06 µM, the “PI” value ([2]; 10 min) was 34.9 and the IC50 [2, 6] was 28.8 ± 0.94 µM. For the same compound, the IC50 [2, 7] was 0.825 ± 0.03 µM, the “Singlet oxygen quantum yield Φ(1O2), CH3CN Indirect” value [3] was 0.63 and the “Singlet oxygen quantum yield Φ(1O2), PBS indirect” value [3] was 0.03.

“((E,E′)-4,4′-Bis(N,N′-dimethylaminovinyl)-2,2′-bipyridine)bis(1,10-phenanthroline)ruthenium(II) hexafluorophosphate [Compound 5]” showed an IC50 ([1]; dark, read-out: IC50 Dark) of over 100 µM, an IC50 [1, 5] of over 100 µM and an IC50 [2, 6] of over 100 µM. For the same compound, the IC50 [2, 7] was over 100 µM, the “Singlet oxygen quantum yield Φ(1O2), CH3CN Indirect” value [3] was 0.30 and the “Singlet oxygen quantum yield Φ(1O2), PBS indirect” value [3] was 0.21.

With “((E,E′)-4,4′-Bis(N,N′-dimethylaminovinyl)-2,2′-bipyridine)bis(4,7-diphenyl-1,10-phenanthroline)ruthenium(II) hexafluorophosphate [Compound 7]” the “PI” value ([1]; 10 min) was over 6.5, the IC50 ([1]; dark, read-out: IC50 Dark) was over 100 µM and the IC50 [1, 5] was 15.2 ± 1.29 µM. For the same compound, the “PI” value ([2]; 10 min) was over 11.2, the IC50 [2, 6] was over 100 µM and the IC50 [2, 7] was 8.95 ± 0.5 µM. For the same compound, the “Singlet oxygen quantum yield Φ(1O2), CH3CN Indirect” value [3] was 0.35 and the “Singlet oxygen quantum yield Φ(1O2), PBS indirect” value [3] was 0.07.
